Laboratory results from patent US8263643B2, “Polyphenol compounds with modulating neurotransmitter release” (Sungkyunkwan University Foundation for Corporate …, priority 2007, dated 2012).

How the values were obtained:
[1] = target: T1, SNARE complex (SNAP25, SynH3, Vps) (UniProt P60879+P63045+Q16623); experiment: SDS-PAGE analysis of SNARE complex formation; format: biochemical; details: for SNARE complex formation (%): control = 100, footnote: [phenolic compound]:SNAP-25 = 1:1, SNARE proteins 10 μM each, polyphenol 100 μM, room temperature 30 min; for Inhibition of SNARE complex formation (in words): FIG. 2, concentration series; for Ratio for inhibition by 50% (IR50), SNARE complex formation: molar concentration ratio phenolic compound:SNAP-25, average of at least three measurements
T1 construct: SynH3 (AF217197); Vps (NM012663); made in house; host or cells: E. coli (Codon (+) RIL, Novagen)
T1 sequence (P60879 whole entry): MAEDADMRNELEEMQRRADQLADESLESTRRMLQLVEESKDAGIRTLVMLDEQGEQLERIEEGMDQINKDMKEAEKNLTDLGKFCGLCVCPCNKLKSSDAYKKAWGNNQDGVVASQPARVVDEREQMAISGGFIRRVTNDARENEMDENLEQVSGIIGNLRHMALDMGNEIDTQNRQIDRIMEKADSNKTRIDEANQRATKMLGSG
T1 sequence (Q16623 192-254 limits assumed): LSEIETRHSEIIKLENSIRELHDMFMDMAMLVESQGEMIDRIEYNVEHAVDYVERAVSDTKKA
T1 sequence (P63045 2-94 limits assumed): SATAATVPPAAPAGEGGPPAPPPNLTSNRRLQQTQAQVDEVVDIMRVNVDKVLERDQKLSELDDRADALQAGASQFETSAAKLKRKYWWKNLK
Method: A SNARE complex is strong enough so as not to be untwisted by SDS. On the basis of such a property, a SDS-PAGE analysis was performed in order to determine the formation of a SNARE complex. Polyphenol compounds used in the present Example were purchased from Sigma-Aldrich, Wako Chemical, and Extrasynthese.
In order to produce SNARE proteins, SNARE proteins, such as, SNAP25 (NM011428), syntaxin 1A (AF217197), VAMP2 (NM012663), SynH3 (AF217197), and Vps (NM012663), were purified in biologically transformed E. coli (Codon (+) RIL, Novagen).
Then, the materials were quickly mixed by a vortex, and were reacted at room temperature for 30 minutes. […]

[2] = target: T2, membrane fusion caused by SNARE (SNAP25, syntaxin 1A, VAMP2) (UniProt P60879+P63045+Q16623); experiment: Membrane fusion assay with SNARE-reconstituted liposomes (fluorescence); format: biochemical; details: for remaining activity at 20 µM / Membrane fusion caused by SNARE (% of fusion without inhibitor): 20 μM phenolic compound, 100% = no inhibitor added; for remaining activity at 20 µM: read-out: Membrane fusion caused by SNARE (% of fusion without inhibitor); for Reduction of membrane fusion (in words): FIG. 3; for Ratio for inhibition by 50% (IR50), membrane fusion: molar concentration ratio phenolic compound:SNAP-25, average of at least three measurements
T2 construct: made in house; host or cells: E. coli (Codon (+) RIL, Novagen)
T2 sequence (P60879 whole entry, the tested form may be a part): as the sequence (P60879 whole entry) above
T2 sequence (Q16623 whole entry, the tested form may be a part): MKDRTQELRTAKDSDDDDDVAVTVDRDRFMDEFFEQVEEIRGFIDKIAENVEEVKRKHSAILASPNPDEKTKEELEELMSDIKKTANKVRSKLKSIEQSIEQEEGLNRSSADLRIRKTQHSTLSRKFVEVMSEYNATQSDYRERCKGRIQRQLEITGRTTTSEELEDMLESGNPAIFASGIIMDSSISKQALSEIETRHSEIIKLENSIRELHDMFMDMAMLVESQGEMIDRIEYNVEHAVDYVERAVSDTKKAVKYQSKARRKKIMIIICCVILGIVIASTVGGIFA
T2 sequence (P63045 whole entry, the tested form may be a part): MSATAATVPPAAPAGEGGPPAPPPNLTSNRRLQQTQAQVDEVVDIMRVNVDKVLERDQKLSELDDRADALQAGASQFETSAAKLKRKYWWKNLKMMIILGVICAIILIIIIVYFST
Method: In order to produce SNARE proteins, SNARE proteins, such as SNAP25 (NM011428), syntaxin 1A (AF217197), and VAMP2 (NM012663), were purified in biologically transformed E. coli (Codon (+) RIL, Novagen).
In order to prepare liposome (fine membrane) marked with a fluorescent substance, POPC (62 mol %), DOPS (35 mol %), NBD-PS (1.5 mol %) and a fluorescent substance Rhodamin-PE (1.5 mol %) were mixed to obtain 10 mM of liposome (v-vesicle). Also, in order to prepare a liposome not marked with a fluorescent substance, DOPS and POPC were mixed in a molar concentration ratio of 35:65 to obtain 50 mM of liposome (t-vesicle). In order to prepare a complex of the purified SNAP25 and syntaxin 1a, the SNAP25 and the syntaxin 1a were mixed in a molar concentration ratio of 1:1, and then were reacted at room temperature for 1 hour. Then, the resultant mixture and the liposome not marked with a fluorescent substance were mixed in a molar ratio of 100:1. The VAMP2 and the liposome marked with a fluorescent substance were mixed in a molar ratio of 50:1. Then, each of the two kinds of liposomes was dialyzed by using 10 kDa dialyzing membrane through agitation at 4° C. for 24 hours, and the liposomes were mixed in a ratio of 3:7 (v-vesicle t-visicle). Next, fluorescence was measured by using a fluorometer (SpectraMax M2 manufactured by Molecular Device).
Herein, 100% indicates the degree of membrane fusion in the state where no inhibitor was added. As the value is smaller, the inhibiting degree is higher.

PC12 cell = experiment: Inhibition of [3H]-norepinephrine release from PC12 cells; format: cell-based; details: normal PC12 cells, FIG. 4
Method: PC12 cells were cultured in a Ham's F12K medium where 10% […], 5% fetal bovine serum, and antibiotics were added in a collagen-coated plate (60 mm dish). In subculture, after sucking of the medium, 2 ml of PBS was added and cells were separated from a dish wall through pipetting. Then, centrifugation with 1,000×g for 5 minutes was carried out to obtain cells. A new medium was introduced, and a cell pellet was dispersed through pipetting and was loaded onto a new culture plate. And culture was carried out at 37° C. in a culture medium providing 5% CO2 gas. [^3H]-norepinephrine used for the experiment was purchased from Amersham. After sucking of the medium in the plate of PC12 cells, PBS was added and cells were separated from a plate wall. Then, the number of cells was measured by a hemacytometer, and the cells were dispersedly inoculated into a new medium at a concentration of 2×10^5 cell/ml. After 24 hours, a buffer solution ([^3H]—NE, 1.5 μCi/ml) for assay of norepinephrine was added, and then the cells were induced in a carbon dioxide incubator for 90 minutes. After the reaction, the buffer solution was removed and the cells were washed three times with PBS. Then, a new medium and each polyphenol compound were loaded and a reaction was performed for 30 minute. […]

| SNARE complex formation (%) [1] [%] | remaining activity at 20 µM [2] [%] | Membrane fusion caused by SNARE (% of fusion without inhibitor) [2] [%] | Ratio for inhibition by 50% (IR50), SNARE complex formation [1] | Reduction of membrane fusion (in words) [2] | Ratio for inhibition by 50% (IR50), membrane fusion [2] | Structure (SMILES) | Norepinephrine release inhibiting effect (in words) (PC12 cell) | Inhibition of SNARE complex formation (in words) [1] |
| --- | --- | --- | --- | --- | --- | --- | --- | --- |
| 92.86 ± 9.53 | 96.7 ± 10.6 |  |  |  |  | C[C@@H]1O[C@@H](OC[C@H]2O[C@@H](Oc3c(-c4ccc(O)c(O)c4)oc4cc(O)cc(O)c4c3=O)[C@H](O)[C@@H](O)[C@@H]2O)[C@H](O)[C@H](O)[C@H]1O [Rutin] |  |  |
| 93.33 ± 12.20 | 125 ± 7.45 |  |  |  |  | O=C(O)/C=C/c1ccc(O)c(O)c1 [Caffeic acid] |  |  |
| 92.25 ± 5.92 | 78.2 ± 2.47 |  |  |  |  | COc1cc(C(=O)O)cc(OC)c1O [Syringic acid] |  |  |
| 97.99 ± 0.87 |  | 79.63 ± 7.58 |  |  |  | COc1cc2c(c(OC)c1OC)-c1c(cc3c(c1OC)OCO3)C[C@H](C)[C@](C)(O)C2 [Gomisin A] |  |  |
| 115.19 ± 23.74 | 86.3 ± 3.87 |  |  |  |  | O=C(CCc1ccc(O)cc1)c1c(O)cc(O)cc1O[C@@H]1O[C@H](CO)[C@@H](O)[C@H](O)[C@H]1O [Phloridzin] |  |  |
| 93.38 ± 14.39 | 118 ± 2.79 |  |  |  |  | COc1cc(/C=C/C(=O)O)ccc1O [Ferulic acid] |  |  |
| 67.12 ± 20.31 | 7.23 ± 1.08 |  |  |  |  | Oc1cc(O)c2cc(O)c(-c3ccc(O)c(O)c3)[o+]c2c1 [Cyanidin] |  |  |
| 114.55 ± 5.00 |  | 97.98 ± 1.50 |  |  |  | Oc1cc(O)c2c(c1)O[C@H](c1ccc(O)c(O)c1)[C@H](O)C2 [(−)-Epicatechin] |  |  |
| 96.94 ± 7.99 | 96.9 ± 7.99 |  |  |  |  | O=c1cc(-c2ccc(O)cc2)oc2cc(O)cc(O)c12 [Apigenin] |  |  |
| 98.12 ± 6.56 | 121 ± 1.27 |  |  |  |  | O=c1cc(-c2ccccc2)oc2cc(O)cc(O)c12 [Chrysin] |  |  |
| 60.53 ± 18.88 | 37.5 ± 3.45 |  |  |  |  | Oc1cc(O)c2cc(O)c(-c3cc(O)c(O)c(O)c3)[o+]c2c1 [Delphinidin] |  |  |
| 105.02 ± 11.37 | 107 ± 2.89 |  |  |  |  | C[C@@H]1O[C@@H](O[C@H]2[C@H](Oc3cc(O)c4c(c3)O[C@H](c3ccc(O)cc3)CC4=O)O[C@H](CO)[C@@H](O)[C@@H]2O)[C@H](O)[C@H](O)[C@H]1O [Naringin] |  |  |
| 97.23 ± 5.70 | 99.6 ± 7.63 |  |  |  |  | COc1cc(C(=O)O)ccc1O [Vanillic acid] |  |  |
| 107.60 ± 13.30 | 116 ± 5.52 |  |  |  |  | COc1cc2c(c(OC)c1OC)-c1c(cc(OC)c(OC)c1OC)C[C@](C)(O)[C@@H](C)C2 [Schizandrin] |  |  |
| 87.54 ± 9.50 | 22 ± 2.05 |  | 27.8 | can reduce membrane fusion | 7.31 | O=c1oc2c(O)c(O)cc3c(=O)oc4c(O)c(O)cc1c4c23 [Ellagic acid] |  | inhibit the formation of a SNARE complex by 50% at a low concentration |
| 72.13 ± 10.13 | 43.9 ± 8.38 |  | 14.9 | can reduce membrane fusion | 0.79 | O=c1c(O)c(-c2cc(O)c(O)c(O)c2)oc2cc(O)cc(O)c12 [Myricetin] | relatively high norepinephrine release inhibiting effects | inhibit the formation of a SNARE complex by 50% at a low concentration |
| 100.16 ± 2.19 | 96.7 ± 2.38 |  |  |  |  | O=C(O)c1cc(O)ccc1O [Gentisic acid] |  |  |
| 86.23 ± 8.14 | 65.5 ± 2.09 |  | 38.2 | can reduce membrane fusion | 4.02 | O=c1cc(-c2ccc(O)c(O)c2)oc2cc(O)cc(O)c12 [Luteolin] |  |  |

| Structure (SMILES) | SNARE complex formation (%) [1] [%] | remaining activity at 20 µM [2] [%] | Membrane fusion caused by SNARE (% of fusion without inhibitor) [2] [%] | Ratio for inhibition by 50% (IR50), SNARE complex formation [1] | Reduction of membrane fusion (in words) [2] | Ratio for inhibition by 50% (IR50), membrane fusion [2] | Norepinephrine release inhibiting effect (in words) (PC12 cell) | Inhibition of SNARE complex formation (in words) [1] |
| --- | --- | --- | --- | --- | --- | --- | --- | --- |
| C[C@@H]1O[C@@H](Oc2c(-c3ccc(O)c(O)c3)oc3cc(O)cc(O)c3c2=O)[C@H](O)[C@H](O)[C@H]1O [Quercitrin] | 92.18 ± 9.59 | 86 ± 26.1 |  |  |  |  |  |  |
| O=C(/C=C/c1ccc(O)c(O)c1)c1ccc(O)cc1O [Butein] | 88.45 ± 7.09 | 16.9 ± 2.98 |  | 30.5 | can reduce membrane fusion | 0.81 | relatively high norepinephrine release inhibiting effects | inhibit the formation of a SNARE complex by 50% at a low concentration |
